Source: the NIST ThermoML archive (doi:10.1016/j.jct.2011.12.010)

Assay: molar heat capacity at constant pressure
Conditions: 101.33 kPa, Crystal, Vacuum adiabatic calorimetry

CC(C)(C)Cc1ccccc1 [(2,2-dimethylpropyl)benzene]
Conditions	molar heat capacity at constant pressure [J/K/mol]
5 K	0.3584
6.43 K	0.79
6.83 K	0.95
7.1 K	1.05
7.5 K	1.2
7.91 K	1.41
8.27 K	1.62
8.57 K	1.81
8.9 K	2.04
9.24 K	2.3
9.58 K	2.54
9.91 K	2.77
10 K	2.835
10.24 K	3
10.55 K	3.28
10.86 K	3.54
11.15 K	3.76
11.45 K	4.08
11.74 K	4.36
12.04 K	4.69
12.51 K	5.2
13.17 K	6
13.78 K	6.68
14.4 K	7.42
14.99 K	8.11
15 K	8.156
15.59 K	8.88
16.17 K	9.65
16.76 K	10.42
17.35 K	11.18
18.02 K	12.15
18.82 K	13.47
19.44 K	14.45
20 K	15.37
20.07 K	15.49
20.87 K	16.75
21.6 K	17.96
22.31 K	19.18
22.92 K	20.15
23.68 K	21.34
24.39 K	22.44
25 K	23.31
25.18 K	23.58
25.93 K	24.66
26.71 K	25.76
27.52 K	26.89
28.33 K	28.13
29.16 K	29.24
30 K	30.36
30.01 K	30.42
30.87 K	31.42
31.75 K	32.74
32.64 K	33.75
33.41 K	34.7
34.46 K	36.13
35 K	36.76
35.4 K	37.3
36.35 K	38.43
37.32 K	39.67
38.31 K	40.94
39.3 K	41.89
40 K	42.83
40.33 K	43.02
41.36 K	44.25
42.4 K	45.57
43.47 K	46.7
44.54 K	47.93
45 K	48.21
45.63 K	48.9
46.73 K	49.79
47.83 K	50.85
48.96 K	51.7
50 K	52.68
50.08 K	52.7
51.22 K	53.77
52.37 K	54.62
53.54 K	55.66
54.59 K	56.42
56 K	57.64
57.09 K	58.58
58.29 K	59.72
59.5 K	60.71
60 K	61.21
60.59 K	61.7
61.93 K	63.06
63.16 K	64.15
64.57 K	65.26
65.64 K	66.12
66.89 K	67.2
68.15 K	68
69.4 K	69.06
70 K	69.54
70.99 K	70.19
72.9 K	71.7
74.83 K	72.92
76.87 K	74.43
78.7 K	75.75
79.98 K	76.76
80 K	76.67
80.65 K	77.08
81.93 K	78.1
82.61 K	78.8
83.87 K	79.5
84.58 K	80.15
85.81 K	80.93
86.55 K	81.42
87.75 K	82.4
88.51 K	82.92
89.69 K	83.89
90 K	84.14
90.49 K	84.64
91.64 K	85.39
92.48 K	86.14
93.59 K	86.97
95.54 K	88.3
97.5 K	89.8
99.45 K	91.29
100 K	91.54
101.41 K	92.54
103.37 K	94.12
105.32 K	95.53
107.28 K	97.03
109.23 K	98.11
110 K	98.78
111.18 K	99.61
113.14 K	100.85
115.09 K	102.6
117.46 K	104.26
119.37 K	105.34
120 K	105.9
121.31 K	106.92
123.26 K	108
125.2 K	109.67
127.13 K	110.75
129.07 K	111.99
130 K	112.8
131 K	113.49
132.93 K	115.07
134.85 K	116.15
136.78 K	117.4
138.7 K	118.65
140 K	119.7
140.61 K	120.14
142.53 K	121.39
144.43 K	122.97
